Patent publication US10800782B2, “Inhibitors of cellular metabolic processes” (Agios Pharmaceuticals, Inc., priority 2016, dated 2020)

What follows are molecules tested against T1, MAT2A (Homo sapiens, UniProt P31153) (assay: MAT2A biochemical assay (colorimetric inorganic phosphate detection, PiColorLock)). Settings: recombinant His6-tagged MAT2A 1 μg/ml; 60 minutes preincubation at 25° C.; L-Met 80 μM, ATP 100 μM; 60 minutes reaction; read at 623 nm; read-out: MAT2A Inhibition Score.
T1 construct: His6; made in house; host or cells: SF9 insect cells
T1 sequence (P31153 whole entry): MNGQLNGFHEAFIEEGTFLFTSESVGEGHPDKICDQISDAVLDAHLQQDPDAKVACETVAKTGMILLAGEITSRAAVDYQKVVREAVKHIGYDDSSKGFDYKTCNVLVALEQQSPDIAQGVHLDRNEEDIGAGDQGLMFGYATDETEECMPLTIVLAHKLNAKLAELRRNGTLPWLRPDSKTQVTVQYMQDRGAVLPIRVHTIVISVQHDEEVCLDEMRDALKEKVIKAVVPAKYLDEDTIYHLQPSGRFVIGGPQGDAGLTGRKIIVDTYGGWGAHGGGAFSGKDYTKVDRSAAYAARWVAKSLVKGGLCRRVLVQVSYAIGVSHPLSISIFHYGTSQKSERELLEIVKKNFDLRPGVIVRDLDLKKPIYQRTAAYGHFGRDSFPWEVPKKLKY
Procedure, shortened: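 His6-tagged human MAT2A (SF9-expressed, 1 μg/ml) converting L-Met and ATP to SAM in Tris pH 8.0, 50 mM KCl, 15 mM MgCl2, 300 uM EDTA, 0.005% BSA; 60 min at room temperature. Released phosphate detected colorimetrically with malachite green phosphomolybdate. Ten-point, three-fold compound dilution series.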
In the case of `COc1ccc(-c2c(NCCO)[nH]c3c(-c4ccccc4)c(-c4ccccc4)nn3c2=O)cc1` [Compound 286, 5-((2-hydroxyethyl)amino)-6-(4-methoxyphenyl)-2,3-diphenylpyrazolo[1,5-a]pyrimidin-7(4H)-one], the IC50 is reported as < 100 nM. `CCOC(=O)n1ccc(Nc2[nH]c3c(-c4ccccc4)c(-c4ccccc4)nn3c(=O)c2-c2ccc(OC)cc2)n1` [Compound 287, ethyl 3-((6-(4-methoxyphenyl)-7-oxo-2,3-diphenyl-4,7-dihydropyrazolo[1,5-a]pyrimidin-5-yl)amino)-1H-pyrazole-1-carboxylate] was tested, and the IC50 was < 100 nM. With `COc1ccc(-c2c(O)[nH]c3c(-c4ccccc4)c(-c4ccccc4)nn3c2=O)cc1` [Compound 290, 5-hydroxy-6-(4-methoxyphenyl)-2,3-diphenylpyrazolo[1,5-a]pyrimidin-7(4H)-one] the IC50 was < 100 nM. In the case of `COCn1c(-c2ccccc2)c(C2=CCCCC2)c2nc(C)c(-c3ccc(OC)cc3)c(=O)n21` [Compound 291, 3-cyclohexenyl-1-(methoxymethyl)-6-(4-methoxyphenyl)-5-methyl-2-phenylpyrazolo[1,5-a]pyrimidin-7(1H)-one], the IC50 is reported as < 100 nM. For `Cc1[nH]c2c(-c3ccccc3)c(-c3ccccc3)nn2c(=O)c1-c1ccc(O)c(OCCN(C)C)c1` [Compound 292, 6-(3-(2-(dimethylamino)ethoxy)-4-hydroxyphenyl)-5-methyl-2,3-diphenylpyrazolo[1,5-a]pyrimidin-7(4H)-one], the IC50 was < 100 nM. For `Cc1[nH]c2c(C3=CCCCC3)c(-c3ccccc3)nn2c(=O)c1-c1ccc(OC(=O)[C@@H](N)C(C)C)cc1` [Compound 294, (S)-4-(3-cyclohexenyl-5-methyl-7-oxo-2-phenyl-4,7-dihydropyrazolo[1,5-a]pyrimidin-6-yl)phenyl 2-amino-3-methylbutanoate], the IC50 was < 100 nM. For `Cc1[nH]c2c(C3=CCCCC3)c(-c3ccccc3)nn2c(=O)c1-c1ccc(OP(=O)(O)O)cc1` [Compound 295, 4-(3-(cyclohex-1-en-1-yl)-5-methyl-7-oxo-2-phenyl-4,7-dihydropyrazolo[1,5-a]pyrimidin-6-yl)phenyl dihydrogen phosphate], the IC50 was < 100 nM. `Cc1[nH]c2c(C3=CCCCC3)c(-c3ccccc3)nn2c(=O)c1-c1ccc(OCOP(=O)(O)O)cc1` [Compound 296, (4-(3-cyclohexenyl-5-methyl-7-oxo-2-phenyl-4,7-dihydropyrazolo[1,5-a]pyrimidin-6-yl)phenoxy)methyl dihydrogen phosphate] was tested, and the IC50 was < 100 nM. For `COc1ccc(-c2c(Nc3ccncc3)[nH]c3c(C4=CCCCC4)c(-c4ccccc4)nn3c2=O)cc1` [Compound 297, 3-(cyclohex-1-en-1-yl)-6-(4-methoxyphenyl)-2-phenyl-5-(pyridin-4-ylamino)pyrazolo[1,5-a]pyrimidin-7(4H)-one], the IC50 was < 100 nM. For `Cc1[nH]c2c(N3CCCCC3)c(-c3ccccc3)nn2c(=O)c1C1CC1` [Compound 298, 6-cyclopropyl-5-methyl-2-phenyl-3-(piperidin-1-yl)pyrazolo[1,5-a]pyrimidin-7(4H)-one], the IC50 was 100 to 1000 nM. Molecule `Cc1[nH]c2c(N3CCCCC3)c(-c3ccccc3)nn2c(=O)c1C1CCCC1` [Compound 300, 6-cyclopentyl-5-methyl-2-phenyl-3-(piperidin-1-yl)pyrazolo[1,5-a]pyrimidin-7(4H)-one] has an IC50 of 100 to 1000 nM. Work on `Cc1[nH]c2c(N3CCCCC3)c(-c3ccccc3)nn2c(=O)c1-c1cccc(N)c1` [Compound 301, 6-(3-aminophenyl)-5-methyl-2-phenyl-3-(piperidin-1-yl)pyrazolo[1,5-a]pyrimidin-7(4H)-one] yielded an IC50 of 100 to 1000 nM. Molecule `Cc1[nH]c2c(N3CCCCC3)c(-c3ccccc3)nn2c(=O)c1N1CCOCC1` [Compound 302, 5-methyl-6-morpholino-2-phenyl-3-(piperidin-1-yl)pyrazolo[1,5-a]pyrimidin-7(4H)-one] has an IC50 of 100 to 1000 nM. `Cc1[nH]c2c(N3CCCCC3)c(-c3ccccc3)nn2c(=O)c1-c1cc[nH]c(=O)c1` [Compound 303, 5-methyl-6-(2-oxo-1,2-dihydropyridin-4-yl)-2-phenyl-3-(piperidin-1-yl)pyrazolo[1,5-a]pyrimidin-7(4H)-one] was tested, and the IC50 was 1000 to 10000 nM.
